# Assay results: EP1137645B1, “ALPHA-METHYLBENZYL-CONTAINING THIOUREA INHIBITORS OF HERPES VIRUSES CONTAINING A […] GROUP” (Wyeth, priority 1998, dated 2000)
# Read-outs that look alike come from different tables or passages of the source.
# Key:
# HSV- I = assay: HSV antiviral (ELISA) assay; type: cell-based; settings: for IC50: read-out: IC50 (ug/ml) HSV
# Summary of the method: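 IC50 from fluorescence versus untreated control in a cell ELISA: anti-glycoprotein D antibody, β-galactosidase-conjugated secondary, 4-methyl umbelliferone read at 365/450 nm. Vero cells (2% FBS DMEM) received compound 30 min pre-infection with HSV-1 at MOI 0.006, fixed ~24 h post-infection.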
# VZV strain Ellen = assay: VZV antiviral (ELISA) assay; type: cell-based
# Summary of the method: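 HFF cells infected with VZV Ellen at multiplicity below 0.1 overnight, then mixed infected/uninfected cells seeded with compound in DMEM/2% FBS and incubated three days at 37°C, 5% CO2.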
# [1] = test system: HCMV recombinant mutant virus whose genome contains the prokaryotic beta-glucuronidase gene; assay: microbe, parasite or virus in culture; type: cell-based, human cytomegalovirus; settings: for IC50: Human betaherpesvirus 5, Fibroblast
# Summary of the method: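 Antiviral IC50 estimated from reduced reporter activity across compound amounts: lysates prepared 96 h after infection were tested with p-nitrophenyl- or methylumbelliferyl-glucuronide. Cells were human foreskin fibroblasts, infected alongside inhibitor with HCMV (e.g. RV145) expressing viral promoter-driven beta-glucuronidase.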
# [2] = Human alphaherpesvirus 3, HFF, read-out: IC50 (ug/ml) VZV, VZV strain Ellen, HFF cells, ELISA
# [3] = read-out: IC50 ug/ml HCMV, HCMV, human foreskin fibroblasts
# [4] = Human alphaherpesvirus 3, HFF, read-out: % inhibition 10 ug/ml VZV
# [5] = Human alphaherpesvirus 3, HFF, read-out: IC50 (ug/ml) VZV
# [6] = Human alphaherpesvirus 3, VZV strain Ellen, HFF cells, ELISA, read-out: IC50 (ug/ml) VZV
Compound,IC50 (HSV- I; Vero),IC50 (VZV strain Ellen; [2]),"IC50 [1, 3]","IC50 (HSV- I; HSV- I, Vero cells, ELISA)",inhibition at 10 µg/mL (VZV strain Ellen; [4]),IC50 (VZV strain Ellen; [5]),also measured
"COc1ccc(NC(=S)Nc2ccc(NC(=O)c3ccccc3F)cc2)cc1Br [Example 811, N-{4-[3-(3-Bromo-4-methoxy-phenyl)-thioureido]-phenyl}-2-fluoro-benzamide]",0.8 µg/mL,> 7.5 µg/mL,3.1 µg/mL,–,–,–,–
"O=C(Nc1ccc(NC(=S)Nc2ccc(C(F)(F)F)c(Cl)c2)cc1)c1ccccc1F [Example 911, N-{4-[3-(3-Chloro-4-trifluoromethyl-phenyl)-thioureido]-phenyl}-2-fluoro-benzamide]",–,–,8 µg/mL,> 10 µg/mL,38%,> 10 µg/mL,–
"CCN(CC)CC(=O)Nc1ccc(NC(=S)Nc2ccc(NC(=O)c3ccccc3F)cc2)cc1Cl [Example 414, N-(4-{3-[3-Chloro-4-(2-diethylamino-acetylamino)-phenyl]-thioureido}-phenyl)-2-fluoro-benzamide]",–,–,> 10 µg/mL,6 µg/mL,70%,> 15 µg/mL,–
"COc1cc(OC)c(NC(=S)Nc2ccc(NC(=O)c3ccccc3SC)cc2)cc1Cl [Example 194, N-{4-[3-(5-Chloro-2,4-dimethoxy-phenyl)-thioureido]-phenyl}-2-methyl-sulfanyl-benzamide]",–,–,> 10 µg/mL,1.5 µg/mL,45%,> 10 µg/mL,–
"CN(c1ccc(NC(=S)Nc2ccc(NC(=O)c3ccccc3F)cc2)cc1Cl)C1CCCCC1 [Example 238, N-(4-{3-[3-Chloro-4-(cyclohexyl-methyl-amino)-phenyl]-thioureido}-phenyl)-2-fluoro-benzamide]",–,–,> 10 µg/mL,> 10 µg/mL,38%,> 10 µg/mL,–
"COc1ccc(NC(=S)Nc2ccc(NC(=O)c3ccccc3OC)cc2)cc1Cl [Example 818, N-{4-[3-(3-Chloro-4-methoxy-phenyl)-thioureido]-phenyl}-2-methoxy-benzamide]",–,–,4 µg/mL,1.2 µg/mL,32%,> 10 µg/mL,–
"COc1ccccc1C(C)NC(=S)Nc1ccc(NC(=O)c2ccccc2F)cc1 (centres unmarked) [Example 788, 2-Fluoro-N-(4-{3-[1-(2-methoxy-phenyl)-ethyl]-thioureido}-phenyl)-benzamide]",> 10 µg/mL,> 7.5 µg/mL,1.8 µg/mL,–,–,–,–
"CC(NC(=S)Nc1ccc(NC(=O)c2ccc(F)cc2)cc1)c1ccc(F)cc1 (centres unmarked) [Example 801, 4-Fluoro-N-(4-{3-[1-(4-fluoro-phenyl)-ethyl]-thioureido}-phenyl)-benzamide]",–,–,–,> 10 µg/mL,–,–,IC50 (VZV strain Ellen; [6]): > 7.5 µg/mL; IC50 ([1]; read-out: IC50 ug/ml HCMV): > 10 µg/mL
"CCOc1ccc(NC(=S)Nc2ccc(NC(=O)c3ccccc3F)cc2)cc1Cl [Example 806, N-{4-[3-(3-Chloro-4-ethoxy-phenyl)-thioureido]-phenyl}-2-fluoro-benzamide]",> 10 µg/mL,> 7.5 µg/mL,> 10 µg/mL,–,–,–,–
"O=C(Nc1ccc(NC(=S)Nc2ccc(I)c(Cl)c2)cc1)c1ccccc1F [Example 916, N-{4-[3-(3-Chloro-4-iodo-phenyl)-thioureido]-phenyl}-2-fluoro-benzamide]",–,–,3 µg/mL,> 10 µg/mL,30%,> 10 µg/mL,–
"COc1c(Cl)cc(NC(=S)Nc2ccc(NC(=O)c3cccc(F)c3)cc2)cc1Cl [Example 872, N-{4-[3-(3,5-Dichloro-4-methoxy-phenyl)-thioureido]-phenyl}-3-fluoro-benzamide]",–,–,0.6 µg/mL,4 µg/mL,28%,> 10 µg/mL,–
"CCCOc1ccc(NC(=S)Nc2ccc(NC(=O)c3ccccc3F)cc2)cc1Cl [Example 807, N-{4-[3-(3-Chloro-4-propoxy-phenyl)-thioureido]-phenyl}-2-fluoro-benzamide]",> 10 µg/mL,0.9 µg/mL,10 µg/mL,–,–,–,–
"COc1ccc(C(C)NC(=S)Nc2ccc(NC(=O)c3ccccc3F)cc2)cc1 (centres unmarked) [Example 777, 2-Fluoro-N-(4-{3-[1-(4-methoxy-phenyl)-ethyl]-thioureido}-phenyl)-benzamide]",> 10 µg/mL,> 7.5 µg/mL,1.7 µg/mL,–,–,–,–
"Cc1cccc(C(C)NC(=S)Nc2ccc(NC(=O)c3ccccc3F)cc2)c1 (centres unmarked) [Example 776, 2-Fluoro-N-{4-[3-(1-m-tolyl-ethyl)-thioureido]-phenyl}-benzamide]",> 10 µg/mL,> 7.5 µg/mL,0.9 µg/mL,–,–,–,–
"CC(NC(=S)Nc1ccc(NC(=O)c2ccccc2F)cc1)c1cccc(Cl)c1 (centres unmarked) [Example 779, N-(4-{3-[1-(3-Chloro-phenyl)-ethyl]-thioureido}-phenyl)-2-fluoro-benzamide]",> 10 µg/mL,> 7.5 µg/mL,1.2 µg/mL,–,–,–,–
"CC(NC(=S)Nc1ccc(NC(=O)c2cccc3cccnc23)cc1)c1ccc(F)cc1 (centres unmarked) [Example 991, Quinoline-8-carboxylic acid (4-{3-[1-(4-fluoro-phenyl)-ethyl]-thioureido}-phenyl)-amide]",–,–,7.4 µg/mL,> 10 µg/mL,–,0.1 µg/mL,–
"Cc1ccccc1C(=O)Nc1ccc(NC(=S)Nc2ccc(N(C)C)c(Cl)c2)cc1 [Example 346, N-{4-[3-(3-Chloro-4-dimethylamino-phenyl)-thioureido]-phenyl}-2-methyl-benzamide]",–,–,2 µg/mL,6 µg/mL,62%,> 10 µg/mL,–
"COc1cc(OC)c(NC(=S)Nc2ccc(NC(=O)c3ccccc3C)cc2)cc1Cl [Example 114, N-{4-[3-(5-Chloro-2,4-dimethoxy-phenyl)-thioureido]-phenyl}-2-methyl-benzamide]",–,–,5 µg/mL,0.3 µg/mL,17%,> 10 µg/mL,–
"CC(NC(=S)Nc1ccc(NC(=O)c2ccccc2F)cc1)c1ccc2ccccc2c1 (centres unmarked) [Example 799, 2-Fluoro-N-{4-[3-(1-naphthalen-2-yl-ethyl)-thioureido]-phenyl}-benzamide]",> 10 µg/mL,> 7.5 µg/mL,1.7 µg/mL,–,–,–,–
"CN1CCC(N(C)c2ccc(NC(=S)Nc3ccc(NC(=O)c4c(F)cccc4F)cc3)cc2Cl)CC1 [Example 340, N-[4-(3-{3-Chloro-4-[methyl-(1-methyl-piperidin-4-yl)-amino]-phenyl}-thioureido)-phenyl]-2,6-difluoro-benzamide]",–,–,0.25 µg/mL,3 µg/mL,99%,4 µg/mL,–
"COc1cc(OC)c(NC(=S)Nc2ccc(NC(=O)c3ccccc3N)cc2)cc1Cl [Example 181, 2-Amino-N-{4-[3-(5-chloro-2,4-dimethoxy-phenyl)-thioureido]-phenyl}-benzamide]",–,–,> 10 µg/mL,1.5 µg/mL,60%,> 10 µg/mL,–
"CSc1ccc(NC(=S)Nc2ccc(NC(=O)c3c(F)cccc3F)cc2)cc1Cl [Example 848, N-{4-[3-(3-Chloro-4-methylsulfanyl-phenyl)-thioureido]-phenyl}-2,6-difluoro-benzamide]",–,–,0.3 µg/mL,0.085 µg/mL,101%,1.3 µg/mL,–
"O=C(Nc1ccc(NC(=S)Nc2cc(Cl)c(Cl)c(Cl)c2)cc1)c1ccccc1F [Example 937, 2-Fluoro-N-{4-[3-(3,4,5-trichloro-phenyl)-thioureido]-phenyl}-benzamide]",–,–,–,0.7 µg/mL,–,–,"inhibition at 10 µg/mL (VZV strain Ellen; Human alphaherpesvirus 3, read-out: % inhibition 10 ug/ml VZV, 10 ug/ml, VZV strain Ellen, HFF cells, ELISA): 25%; IC50 (VZV strain Ellen; [6]): > 10 µg/mL; IC50 ([1]; read-out: IC50 ug/ml HCMV): 2 µg/mL"
N-(4-{3-[1-(4-Bromo-phenyl)-ethyl]-thioureido}-phenyl)-2-methoxy-benzamide [Example 1019],–,–,–,–,–,–,"IC50 (ug/ml) HSV (HSV- I; HSV- I, Vero cells, ELISA): >10 µg/mL; IC50 (ug/ml) VZV (VZV strain Ellen; VZV strain Ellen, HFF cells, ELISA): 0.05 µg/mL; IC50 ug/ml HCMV ([1]; HCMV, human foreskin fibroblasts): 2.6 µg/mL"
"CC(NC(=S)Nc1ccc(NC(=O)c2nccc3ccccc23)cc1)c1ccc(C#N)cc1 (centres unmarked) [Example 979, Isoquinoline-1-carboxylic acid (4-{3-[1-(4-cyano-phenyl)-ethyl]-thioureido}-phenyl)-amide]",> 10 µg/mL,0.13 µg/mL,3.7 µg/mL,–,–,–,–
"CC(NC(=S)Nc1ccc(NC(=O)c2ccnc3ccccc23)cc1)c1ccc(F)cc1 (centres unmarked) [Example 989, Quinoline-4-carboxylic acid (4-{3-[1-(4-fluoro-phenyl)-ethyl]-thioureido}-phenyl)-amide]",–,–,2.9 µg/mL,4.1 µg/mL,–,3 µg/mL,–
"CC(NC(=S)Nc1ccc(NC(=O)c2ccccc2F)cc1)c1ccc(F)cc1 (centres unmarked) [Example 591, 2-Fluoro-N-(4-{3-[1-(4-fluoro-phenyl)-ethyl]-thioureido}-phenyl)-benzamide]",–,–,–,> 10 µg/mL,–,–,IC50 (VZV strain Ellen; [6]): 1.5 µg/mL; IC50 ([1]; read-out: IC50 ug/ml HCMV): 7 µg/mL
"CC(C)Oc1ccc(NC(=S)Nc2ccc(NC(=O)c3ccccc3F)cc2)cc1Cl [Example 808, N-{4-[3-(3-Chloro-4-isopropoxy-phenyl)-thioureido]-phenyl}-2-fluoro-benzamide]",> 10 µg/mL,> 7.5 µg/mL,> 10 µg/mL,–,–,–,–
"COc1cc(OC)c(NC(=S)Nc2ccc(NC(=O)c3cccc(OC(C)=O)c3)cc2)cc1Cl [Example 253, Acetic acid 3-{4-[3-(5-chloro-2,4-dimethoxy-phenyl)-thioureido]-phenyl-carbamoyl}-phenyl ester]",–,–,8 µg/mL,1.2 µg/mL,100%,6 µg/mL,–
